Reference: ChEMBL document CHEMBL5214920, “Emerging impact of triazoles as anti-tubercular agent” (Eur J Med Chem, 2022)
In brackets after ≈: the same amount, converted by molar mass.

The compounds below were run on Mycobacterium tuberculosis (assay: Antitubercular activity against Mycobacterium tuberculosis H37Rv assessed as bacterial growth inhibition measured after 7 days by MABA method). Conditions: 168 h, time 7 day.
Assay type: functional
`CCCCCc1ccc(-c2cn(CC(O)COc3ccc4c(c3)OC3(CCCCC3)CC4=O)nn2)cc1` (stereo unspecified) gave an MIC of 0.78 µg/mL (≈ 1.55 µM).
In the case of `Cc1ccc2c(c1)C=CC1(CCc3c(nnn3-c3ccccc3)C1)O2` (stereo unspecified), the MIC is reported as 1.56 µg/mL (≈ 4.74 µM).
With `COc1ccc(-n2nnc3c2CCC2(C=Cc4cc(Cl)ccc4O2)C3)cc1` (stereo unspecified) the MIC was 1.56 µg/mL (≈ 4.11 µM).
Work on `COc1ccc(-n2nnc3c2CCC2(C=Cc4cc(C)ccc4O2)C3)cc1` (stereo unspecified) yielded an MIC of 1.56 µg/mL (≈ 4.34 µM).

These compounds were tested on Mycobacterium tuberculosis (assay: Antitubercular activity against Mycobacterium tuberculosis H37Rv ATCC 27294 assessed as bacterial growth inhibition measured after 5 days by MABA method). Conditions: H37Rv ATCC 27294, 120 h, time 5 day.
Assay type: functional
Compound `Cc1nc2ncccn2c1C(=O)NCc1cn(Cc2ccc(C#N)cc2)nn1` has an MIC of 1.56 µg/mL.
Work on `Cc1nc2ccccn2c1C(=O)NCc1cn(Cc2ccc(C(F)(F)F)cc2)nn1` yielded an MIC of 1.56 µg/mL.
Compound `C[C@H](CCC(=O)COc1cn(C[C@H]2O[C@@H](n3cnc4c(N)ncnc43)[C@@H]3OC(C)(C)O[C@@H]32)nn1)C12CCCC1C1CCC3C[C@H](O)CC[C@]3(C)C1CC2` (stereo partly specified) has an MIC of 4.09 µg/mL.
In the case of `COc1ccc2nc(Cl)c(C(=O)NCc3cn(CC(=O)c4ccc(F)cc4)nn3)cc2c1`, the MIC is reported as 1.6 µg/mL.
In the case of `O=C(NCc1cn(Cc2ccc(C(F)(F)F)cc2)nn1)c1cn2cccnc2n1`, the MIC is reported as 1.56 µg/mL.
`Cc1nc2ccccn2c1C(=O)NCc1cn(Cc2ccccc2F)nn1` showed an MIC of 1.56 µg/mL.
Work on `Cc1nc2ccccn2c1C(=O)NCc1cn(Cc2ccc([N+](=O)[O-])cc2)nn1` yielded an MIC of 1.56 µg/mL.
Work on `COc1ccc2nc(Cl)c(C(=O)NCc3cn(Cc4ccccc4)nn3)cc2c1` yielded an MIC of 1.6 µg/mL.
Compound `Cc1ccc(Cn2cc(CNC(=O)c3cn4ccccc4n3)nn2)cc1` has an MIC of 1.56 µg/mL.
Compound `Cc1nc2ncccn2c1C(=O)NCc1cn(Cc2ccc(C(F)(F)F)cc2)nn1` has an MIC of 1.56 µg/mL.
For `COc1ccc(Cn2cc(CNC(=O)c3cn4ccccc4n3)nn2)cc1`, the MIC was 1.56 µg/mL.
With `O=C(NCc1cn(Cc2ccc([N+](=O)[O-])cc2)nn1)c1cn2cccnc2n1` the MIC was 1.56 µg/mL.
In the case of `COc1ccc(Cn2cc(CNC(=O)c3cc4cc(OC)ccc4nc3Cl)nn2)cc1`, the MIC is reported as 1.6 µg/mL.
Work on `Cc1ccc(Cn2cc(CNC(=O)c3cn4cccnc4n3)nn2)cc1` yielded an MIC of 1.56 µg/mL.
For `O=C(NCc1cn(Cc2ccc([N+](=O)[O-])cc2)nn1)c1cn2ccccc2n1`, the MIC was 1.56 µg/mL.
With `COc1ccc(Cn2cc(CNC(=O)c3c(C)nc4ccccn34)nn2)cc1` the MIC was 1.56 µg/mL.
Compound `Cc1nc2ncccn2c1C(=O)NCc1cn(Cc2ccccc2F)nn1` has an MIC of 1.56 µg/mL.
`COc1ccc(C(=O)Cn2cc(CNC(=O)c3cc4cc(OC)ccc4nc3Cl)nn2)cc1` showed an MIC of 1.6 µg/mL.
Compound `Cc1ccc(Cn2cc(CNC(=O)c3c(C)nc4ccccn34)nn2)cc1` has an MIC of 1.56 µg/mL.
For `Cc1ccc(Cn2cc(CNC(=O)c3c(C)nc4ncccn34)nn2)cc1`, the MIC was 1.56 µg/mL.
Compound `COc1ccc2nc(Cl)c(C(=O)NCc3cn(Cc4ccc(C#N)cc4)nn3)cc2c1` has an MIC of 1.6 µg/mL.
Work on `COc1ccc(Cn2cc(CNC(=O)c3c(C)nc4ncccn34)nn2)cc1` yielded an MIC of 1.56 µg/mL.
`O=C(NCc1cn(Cc2ccc(C(F)(F)F)cc2)nn1)c1cn2ccccc2n1` showed an MIC of 1.56 µg/mL.
Compound `Cc1nc2ncccn2c1C(=O)NCc1cn(Cc2ccc([N+](=O)[O-])cc2)nn1` has an MIC of 1.56 µg/mL.
With `COc1ccc(Cn2cc(COCc3c(-c4ccc(OC)cc4)nc4ccccn34)nn2)cc1` the MIC was 1.56 µg/mL.
`O=C(NCc1cn(Cc2ccccc2F)nn1)c1cn2cccnc2n1` showed an MIC of 1.56 µg/mL.
Work on `COc1ccc(-c2nc3ccccn3c2COCc2cn(Cc3ccc(C)cc3)nn2)cc1` yielded an MIC of 1.56 µg/mL.
`COc1ccc(Cn2cc(CNC(=O)c3cn4cccnc4n3)nn2)cc1` gave an MIC of 1.56 µg/mL.
`O=C(NCc1cn(Cc2ccccc2F)nn1)c1cn2ccccc2n1` was tested, and the MIC was 1.56 µg/mL.
In the case of `N#Cc1ccc(Cn2cc(CNC(=O)c3cn4cccnc4n3)nn2)cc1`, the MIC is reported as 1.56 µg/mL.
Work on `COc1ccc(Cn2cc(COCc3c(-c4ccccc4F)nc4ccccn34)nn2)cc1` yielded an MIC of 1.56 µg/mL.
`O=C(O)c1cn(C2CC2)c2cc(N3CCNCC3)c(F)cc2c1=O` [CIPROFLOXACIN] was tested, and the MIC was 3.12 µM.
`NC(=O)c1cnccn1` [PYRAZINAMIDE] showed an MIC of 3.12 µg/mL.

What follows are compounds tested on Mycobacterium tuberculosis (assay: Antitubercular activity against Mycobacterium tuberculosis H37Rv assessed as bacterial growth inhibition measured after 7 days by direct susceptibility assay). Conditions: 168 h, time 7 day.
Assay type: functional
Work on `COc1c(N2CCNCC2)c(F)cc2c(=O)c(C(=O)O)cn(C3CC3)c12` yielded an MIC of 1.56 µg/mL (≈ 4.32 µM).
Work on `COc1c(N2CCN(Cc3cn(CCN4C(=O)/C(=N\NC(N)=O)c5cc(Cl)ccc54)nn3)CC2)c(F)cc2c(=O)c(C(=O)O)cn(C3CC3)c12` yielded an MIC of 0.39 µg/mL (≈ 0.552 µM).
Work on `O=C(O)c1cn(C2CC2)c2c(NO)c(N3CCN(Cc4cn(CCN5C(=O)/C(=N\O)c6ccccc65)nn4)CC3)c(F)cc2c1=O` yielded an MIC of 0.39 µg/mL (≈ 0.617 µM).
`O=C(O)c1cn(C2CC2)c2cc(N3CCN(Cc4cn(CCN5C(=O)Cc6ccccc65)nn4)CC3)c(F)cc2c1=O` gave an MIC of 0.2 µg/mL (≈ 0.35 µM).
`O=C1C(=O)N(Cc2cn(Cc3ccc([N+](=O)[O-])c([N+](=O)[O-])c3)nn2)c2ccccc21` was tested, and the MIC was 7.56 µg/mL (≈ 18.5 µM).
`CO/N=C1/C(=O)C(CCOCCOCCOCCn2cc(CN3C(=O)/C(=N/OC)c4cc(F)ccc43)nn2)c2ccccc21` (stereo unspecified) was tested, and the MIC was 128 µg/mL (≈ 210 µM).
For `O=C1C(=O)N(Cc2cn(Cc3ccc(Br)cc3)nn2)c2ccccc21`, the MIC was 8.09 µg/mL (≈ 20.4 µM).
`O=C(O)c1cn(C2CC2)c2cc(N3CCNCC3)c(F)cc2c1=O` [CIPROFLOXACIN] was tested, and the MIC was 3.12 µg/mL (≈ 9.42 µM).

These compounds were tested on Mycobacterium tuberculosis (assay: Antitubercular activity against Mycobacterium tuberculosis H37Rv ATCC 27294 assessed as bacterial growth inhibition measured after 7 days by MABA method). Conditions: H37Rv ATCC 27294, 168 h, time 7 day.
Assay type: functional
In the case of `O=C(Cn1cc(COc2ccc([N+](=O)[O-])cc2)nn1)Nc1ccc(Cl)cc1`, the MIC is reported as over 25 µg/mL.
`O=C(Cn1cc(COc2ccccc2)nn1)Nc1ccccc1Cl` was tested, and the MIC was over 25 µg/mL.
For `Cc1ccccc1NC(=O)Cn1cc(COc2ccc([N+](=O)[O-])cc2)nn1`, the MIC was over 25 µg/mL.
`Cc1ccc(NC(=O)Cn2cc(COc3ccc([N+](=O)[O-])cc3)nn2)cc1` was tested, and the MIC was over 25 µg/mL.

What follows are compounds tested on Mycobacterium tuberculosis (assay: Antitubercular activity against Mycobacterium tuberculosis H37Rv assessed as bacterial growth inhibition measured after 5 days by MABA method). Conditions: 120 h, time 5 day.
Assay type: functional
In the case of `O=C(O)c1cn(C2CC2)c2cc(N3CCNCC3)c(F)cc2c1=O` [CIPROFLOXACIN], the MIC is reported as 3.12 µg/mL (≈ 9.43 µM).
Work on `NC(=O)c1cnccn1` [PYRAZINAMIDE] yielded an MIC of 3.12 µg/mL (≈ 25.4 µM).
